Measurements from US8124655B2, “Use of LR-90 and LR-102 to overcome insulin resistance” (City of Hope, priority 2007, dated 2012).

Legend:
[1] = test system: Zucker diabetic fatty rats (ZDF, fa/fa); test: Metabolic data of ZDF rats treated with LR-90 or LR-102 (Example 2); assay type: in vivo, rat; settings: ZDF rats at 40 weeks of age, Mean ± SEM
Method: The present Example presents the results of an investigation of the effects of LR-90, an inhibitor of AGE/ALE formation, in male Zucker diabetic fatty rats (ZDF, fa/fa) fed with Purina 5008 diet until 40 weeks of age, and their hetorozygous lean littermates (ZDF fa/+) as non-hyperglycemic controls. LR-90 at 50 mg/L of drinking water was given to a subgroup of ZDF rats after the rats developed spontaneous diabetes at 13 weeks of age. At 40 weeks of age, and before killing the animals, their weight was measured; HbA1c, plasma glucose, insulin, triglycerides, cholesterol, CRP and urinary albumin and creatinine concentrations were measured. After euthanizing all animals, organs such as the kidneys, eyeballs, liver, heart, aortae and pancreas were dissected and subjected to immunohistochemical staining, RT-PCR, Western blotting and microscopy.

[2] = test system: Zucker diabetic fatty rats (ZDF, fa/fa); test: Pancreatic islet immunohistochemistry and PAMS staining (Example 2); assay type: in vivo, rat; settings: FIG. 8
Source text: FIG. 7. Immunohistochemical analysis and quantification of islet cells. ZDF GM fa/fa rats and lean control rats were fed with high fat diet for 30 weeks and received either nothing or LR-90 or LR-102 in their drinking water. Pancreatic sections from various groups of animals were stained with anti-insulin antibody or anti-glucagon antibody. A. Representative images with the overlay of the insulin (green) and glucagon (red staining). […] B. Insulin-positive β-cell-to-glucagon-ratio was also measured from these images.
FIG. 8. Periodic acid methenamine silver (PAMS) staining of pancreatic tissues. Sections from cryopreserved pancreas of each group of animals on the study were stained with PAMS and examined under light microscopy.
LR-90 at 50 mg/L of drinking water was given to a subgroup of ZDF rats after the rats developed spontaneous diabetes at 13 weeks of age. At 40 weeks of age, and before killing the animals, their weight was measured; HbA1c, plasma glucose, insulin, triglycerides, cholesterol, CRP and urinary albumin and creatinine concentrations were measured. After euthanizing all animals, organs such as the kidneys, eyeballs, liver, heart, aortae and pancreas were dissected and subjected to immunohistochemical staining, RT-PCR, Western blotting and microscopy.

[3] = described in U.S. Pat. No. 6,787,566; cited from earlier work

SMILES: CC(C)(Oc1ccc(N=Cc2ccc(C=Nc3ccc(OC(C)(C)C(=O)O)cc3)cc2)cc1)C(=O)O [LR-102, 1,4-benzene-bis[4-methyleneaminophenoxyisobutyric acid]]
- Plasma glucose ([1]; drug in drinking water): 29.8 ± 3.2 mmol/dL
- Cholesterol [1]: 290 ± 35 mg/dL
- HbA1c [1]: 2.80 ± 0.12%
- Plasma CRP [1]: 0.77 ± 0.05 mg/mL
- Plasma insulin, ELISA [1]: 0.68 ± 0.10 ng/mL
- Plasma insulin, RIA [1]: 0.65 ± 0.10 ng/mL
- Triglycerides [1]: 536 ± 63 mg/dL
- Urinary Albumin [1]: 35.4 ± 15.8 mg/24 h
- PAMS staining of pancreatic islets [2]: amelioration
- breaking AGE-protein cross-links [3]: active
